In US6559140B2 (Abbott Laboratories, priority 2000, dated 2003):

Biological target: H3 receptor (Rattus norvegicus, UniProt Q9QYN8)
Experiment: H3 receptor binding, (3H)-N-α-methylhistamine displacement in rat cortical membranes
Conditions: male Sprague-Dawley rat brain cortical membranes, 30 minutes at 25° C., Cheng-Prusoff, geometric mean values of 2-10 separate experiments
Experimental: Briefly, male Sprague-Dawley rat brain cortices were homogenized (1 g tissue/10 mL buffer) in 50 mM Tris-HCl/5 mM EDTA containing protease inhibitor cocktail (Calbiochem) using a polytron set at 20,500 rpm. Homogenates were centrifuged for 20 minutes at 40,000×g. The supernatant was decanted, and pellets were weighed. The pellet was resuspended by polytron homogenization in 40 mL 50 mM Tris-HCl/5 mM EDTA with protease inhibitors and centrifuged for 20 minutes at 40,000×g. […] Test compounds were added to the incubation mixtures prior to initiating the incubation assay by addition of the membranes. Thioperamide (3 μM) was used to determine nonspecific binding. Binding incubations were conducted for 30 minutes at 25° C. and terminated by addition of 2 mL of ice cold 50 mM Tris-HCl (H 7.7) and filtration through 0.3% polyethylenimine-soaked Unifilter plates (Packard). These filters were washed 4 additional times with 2 mL of ice-cold 50 mM Tris-HCl and dried for 1 hour. Radioactivity was determined using liquid scintillation counting techniques. Results were analyzed by Hill transformation and Ki values were determined using the Cheng-Prusoff equation.

Sequence of H3 receptor (Q9QYN8 1-397 isoform Q9QYN8-3): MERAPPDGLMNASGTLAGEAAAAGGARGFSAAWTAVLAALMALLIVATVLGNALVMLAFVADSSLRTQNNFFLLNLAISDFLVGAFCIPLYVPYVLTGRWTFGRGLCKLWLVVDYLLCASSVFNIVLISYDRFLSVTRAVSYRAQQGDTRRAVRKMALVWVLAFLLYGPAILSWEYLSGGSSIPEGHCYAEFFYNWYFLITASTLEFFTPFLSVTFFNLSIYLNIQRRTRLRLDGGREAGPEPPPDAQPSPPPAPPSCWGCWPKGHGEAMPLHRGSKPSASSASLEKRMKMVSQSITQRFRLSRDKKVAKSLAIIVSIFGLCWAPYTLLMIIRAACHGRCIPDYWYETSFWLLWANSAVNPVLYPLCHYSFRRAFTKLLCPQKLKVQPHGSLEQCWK

Ki | Compound
3.94 nM | C[C@@H](NC(=O)c1ccco1)C(=O)N1CCCN(CCCOc2ccc(-c3noc(-c4cccs4)n3)c(F)c2)CC1 [Example 148, N-{(1R)-2-[4-(3-{3-fluoro-4-[5-(2-thienyl)-1,2,4-oxadiazol-3-yl]phenoxy}propyl)-1,4-diazepan-1-yl]-1-methyl-2-oxoethyl}-2-furamide]
6.24 nM | C[C@@H](NC(=O)c1ccco1)C(=O)N1CCCN(CCCOc2ccc(-c3noc(-c4nccs4)n3)c(F)c2)CC1 [Example 149, N-{(1R)-2-[4-(3-{3-fluoro-4-[5-(1,3-thiazol-2-yl)-1,2,4-oxadiazol-3-yl]phenoxy}propyl)-1,4-diazepan-1-yl]-1-methyl-2-oxoethyl}-2-furamide]
12.6 nM | C[C@@H](NC(=O)c1ccco1)C(=O)N1CCCN(CCCOc2ccc(-c3noc(-c4ccncc4)n3)c(F)c2)CC1 [Example 150, N-{(1R)-2-[4-(3-{3-fluoro-4-[5-(4-pyridinyl)-1,2,4-oxadiazol-3-yl]phenoxy}propyl)-1,4-diazepan-1-yl]-1-methyl-2-oxoethyl}-2-furamide]
4.29 nM | C[C@@H](NC(=O)c1ccco1)C(=O)N1CCCN(CCCOc2ccc(-c3noc(-c4ccccc4)n3)c(F)c2)CC1 [Example 151, N-[(1R)-2-(4-{3-[3-fluoro-4-(5-phenyl-1,2,4-oxadiazol-3-yl)phenoxy]propyl}-1,4-diazepan-1-yl)-1-methyl-2-oxoethyl]-2-furamide]
1.01 nM | C[C@@H](NC(=O)c1ccco1)C(=O)N1CCCN(CCCOc2ccc(-c3noc(CCc4ccccc4)n3)c(F)c2)CC1 [Example 152, N-{(1R)-2-[4-(3-{3-fluoro-4-[5-(2-phenylethyl)-1,2,4-oxadiazol-3-yl]phenoxy}propyl)-1,4-diazepan-1-yl]-1-methyl-2-oxoethyl}-2-furamide]
26.1 nM | N#Cc1ccc(C(=O)NCCC(=O)N2CCN(CCCOc3ccc(-c4noc(-c5ccccc5)n4)c(F)c3)CC2)cc1 [Example 153, 4′-cyano-N-[3-(4-{3-[3-fluoro-4-(5-phenyl-1,2,4-oxadiazol-3-yl)phenoxy]propyl}-1-piperazinyl)-3-oxopropyl]benzamide]
25 nM | O=C(NCCC(=O)N1CCN(CCCOc2ccc(-c3noc(-c4ccccc4)n3)c(F)c2)CC1)c1ccsc1 [Example 154, N-[3-(4-{3-[3-fluoro-4-(5-phenyl-1,2,4-oxadiazol-3-yl)phenoxy]propyl}-1-piperazinyl)-3-oxopropyl]-3-thiophenecarboxamide]
17.1 nM | O=C(NCCC(=O)N1CCN(CCCOc2ccc(-c3noc(-c4ccccc4)n3)c(F)c2)CC1)[C@H]1CCCO1 [Example 155, (2R)-N-[3-(4-{3-[3-fluoro-4-(5-phenyl-1,2,4-oxadiazol-3-yl)phenoxy]propyl}-1-piperazinyl)-3-oxopropyl]tetrahydro-2-furancarboxamide]
13.7 nM | Cc1cc(C)c(C(=O)NCCC(=O)N2CCN(CCCOc3ccc(-c4noc(-c5ccccc5)n4)c(F)c3)CC2)s1 [Example 156, N-[3-(4-{3-[3-fluoro-4-(5-phenyl-1,2,4-oxadiazol-3-yl)phenoxy]propyl}-1-piperazinyl)-3-oxopropyl]-3,5-dimethyl-2-thiophenecarboxamide]
46.1 nM | Cc1cc(C(=O)NCCC(=O)N2CCN(CCCOc3ccc(-c4noc(-c5ccccc5)n4)c(F)c3)CC2)c(C)o1 [Example 157, N-[3-(4-{3-[3-fluoro-4-(5-phenyl-1,2,4-oxadiazol-3-yl)phenoxy]propyl}-1-piperazinyl)-3-oxopropyl]-2,5-dimethyl-3-furamide]
11.7 nM | O=C(NCCC(=O)N1CCN(CCCOc2ccc(-c3noc(-c4ccccc4)n3)c(F)c2)CC1)C1CCCC1 [Example 158, N-[3-(4-{3-[3-fluoro-4-(5-phenyl-1,2,4-oxadiazol-3-yl)phenoxy]propyl}-1-piperazinyl)-3-oxopropyl]cyclopentanecarboxamide]
4.98 nM | C[C@@H](NC(=O)c1cccs1)C(=O)N1CCN(CCCOc2ccc(-c3noc(-c4ccccc4)n3)c(F)c2)CC1 [Example 159, N-[(1R)-2-(4-{3-[3-fluoro-4-(5-phenyl-1,2,4-oxadiazol-3-yl)phenoxy]propyl}-1-piperazinyl)-1-methyl-2-oxoethyl]-2-thiophenecarboxamide]
2.29 nM | C[C@@H](NC(=O)c1cccnc1)C(=O)N1CCN(CCCOc2ccc(-c3noc(-c4ccccc4)n3)c(F)c2)CC1 [Example 160, N-[(1R)-2-(4-{3-[3-fluoro-4-(5-phenyl-1,2,4-oxadiazol-3-yl)phenoxy]propyl}-1-piperazinyl)-1-methyl-2-oxoethyl]nicotinamide]
2.41 nM | C[C@@H](NC(=O)c1ccco1)C(=O)N1CCN(CCCOc2ccc(-c3noc(-c4ccccc4)n3)c(F)c2)CC1 [Example 161, N-[(1R)-2-(4-{3-[3-fluoro-4-(5-phenyl-1,2,4-oxadiazol-3-yl)phenoxy]propyl}-1-piperazinyl)-1-methyl-2-oxoethyl]-2-furamide]
13 nM | C[C@@H](NC(=O)c1ccno1)C(=O)N1CCN(CCCOc2ccc(-c3noc(-c4ccccc4)n3)c(F)c2)CC1 [Example 162, N-[(1R)-2-(4-{3-[3-fluoro-4-(5-phenyl-1,2,4-oxadiazol-3-yl)phenoxy]propyl}-1-piperazinyl)-1-methyl-2-oxoethyl]-5-isoxazolecarboxamide]
8.35 nM | C[C@@H](NC(=O)[C@@H]1CCCO1)C(=O)N1CCN(CCCOc2ccc(-c3noc(-c4ccccc4)n3)c(F)c2)CC1 [Example 163, (2S)-N-[(1R)-2-(4-{3-[3-fluoro-4-(5-phenyl-1,2,4-oxadiazol-3-yl)phenoxy]propyl}-1-piperazinyl)-1-methyl-2-oxoethyl]tetrahydro-2-furancarboxamide]
6.37 nM | C[C@@H](NC(=O)CCN1CCOCC1)C(=O)N1CCN(CCCOc2ccc(-c3noc(-c4ccccc4)n3)c(F)c2)CC1 [Example 164, N-[(1R)-2-(4-{3-[3-fluoro-4-(5-phenyl-1,2,4-oxadiazol-3-yl)-phenoxy]propyl}-1-piperazinyl)-1-methyl-2-oxoethyl]-3-(4-morpholinyl)propanamide]
11 nM | CC(C)CC(=O)N[C@H](C)C(=O)N1CCN(CCCOc2ccc(-c3noc(-c4ccccc4)n3)c(F)c2)CC1 [Example 165, N-[(1R)-2-(4-{3-[3-fluoro-4-(5-phenyl-1,2,4-oxadiazol-3-yl)phenoxy]propyl}-1-piperazinyl)-1-methyl-2-oxoethyl]-3-methylbutanamide]
6.79 nM | C[C@@H](N)C(=O)N1CCN(CCCOc2ccc(-c3noc(CC4CCCC4)n3)c(F)c2)CC1 [Example 168, (2R)-1-[4-(3-{4-[5-(cyclopentylmethyl)-1,2,4-oxadiazol-3-yl]-3-fluorophenoxy}propyl)-1-piperazinyl]-1-oxo-2-propanamine]
5.63 nM | C[C@@H](N)C(=O)N1CCCN(CCCOc2ccc(-c3noc(CC4CCCC4)n3)c(F)c2)CC1 [Example 169, (2R)-1-[4-(3-{4-[5-(cyclopentylmethyl)-1,2,4-oxadiazol-3-yl]-3-fluorophenoxy}propyl)-1,4-diazepan-1-yl]-1-oxo-2-propanamine]
8.74 nM | CCC(=O)N[C@H](C)C(=O)N1CCN(CCCOc2ccc(-c3noc(CC4CCCC4)n3)c(F)c2)CC1 [Example 170, N-{(1R)-2-[4-(3-{4-[5-(cyclopentylmethyl)-1,2,4-oxadiazol-3-yl]-3-fluorophenoxy}propyl)-1-piperazinyl]-1-methyl-2-oxoethyl}propanamide]
5.42 nM | C[C@@H](NC(=O)CC(C)(C)C)C(=O)N1CCN(CCCOc2ccc(-c3noc(CC4CCCC4)n3)c(F)c2)CC1 [Example 171, N-{(1R)-2-[4-(3-{4-[5-(cyclopentylmethyl)-1,2,4-oxadiazol-3-yl]-3-fluorophenoxy}propyl)-1-piperazinyl]-1-1-methyl-2-oxoethyl}-3,3-dimethylbutanamide]
1.22 nM | C[C@@H](NC(=O)CCN1CCOCC1)C(=O)N1CCN(CCCOc2ccc(-c3noc(CC4CCCC4)n3)c(F)c2)CC1 [Example 172, N-{(1R)-2-[4-(3-{4-[5-(cyclopentylmethyl)-1,2,4-oxadiazol-3-yl]-3-fluorophenoxy}propyl)-1-piperazinyl]-1-methyl-2-oxoethyl}-3-(4-morpholinyl)propanamide]
1.56 nM | Cc1ccc(C(=O)N[C@H](C)C(=O)N2CCN(CCCOc3ccc(-c4noc(CC5CCCC5)n4)c(F)c3)CC2)cc1 [Example 173, N-{(1R)-2-[4-(3-{4-[5-(cyclopentylmethyl)-1,2,4-oxadiazol-3-yl]-3-fluorophenoxy}propyl)-1-piperazinyl]-1-methyl-2-oxoethyl}-4-methylbenzamide]
0.81 nM | C[C@@H](NC(=O)c1ccc(F)cc1)C(=O)N1CCN(CCCOc2ccc(-c3noc(CC4CCCC4)n3)c(F)c2)CC1 [Example 174, N-{(1R)-2-[4-(3-{4-[5-(cyclopentylmethyl)-1,2,4-oxadiazol-3-yl]-3-fluorophenoxy}propyl)-1-piperazinyl]-1-methyl-2-oxoethyl}-4-fluorobenzamide]
1.88 nM | COc1ccc(C(=O)N[C@H](C)C(=O)N2CCN(CCCOc3ccc(-c4noc(CC5CCCC5)n4)c(F)c3)CC2)cc1 [Example 175, N-{(1R)-2-[4-(3-{4-[5-(cyclopentylmethyl)-1,2,4-oxadiazol-3-yl]-3-fluorophenoxy}propyl)-1-piperazinyl]-1-methyl-2-oxoethyl}-4-methoxybenzamide]
